The source made the active and inactive calls.
Legend:
Settings in all cases: Pichia kudriavzevii
[1] = biological target: ATP binding cassette transporter Abc1p (Issatchenkia orientalis) (UniProt Q09GQ4); assay: Inhibition of Candida krusei B2399 Abc1p assessed as reduction of itraconazole MIC at 1 ug after 48 hrs by agarose diffusion assay
[2] = biological target: ATP binding cassette transporter Abc1p (Issatchenkia orientalis) (UniProt Q09GQ4); assay: Inhibition of Candida krusei IF011 Abc1p assessed as reduction of itraconazole MIC at 1 ug after 48 hrs by agarose diffusion assay
[3] = biological target: ATP binding cassette transporter Abc1p (Issatchenkia orientalis) (UniProt Q09GQ4); assay: Inhibition of Candida krusei Abc1p expressed in Saccharomyces cerevisiae isolate AD assessed as reduction of itraconazole MIC at 1 ug after 48 hrs by agarose diffusion assay

Measured: Activity

CO[C@@H]1C(C)=C[C@H]2C(=O)O[C@H]3C[C@@H](C/C=C(\C)C[C@@H](C)/C=C/C=C(\CO)[C@]2(O)[C@@H]1O)O[C@@]1(CC[C@H](C)[C@@H](C)O1)C3
active: all assays above

CO[C@@H]1C(CO)=C[C@H]2C(=O)O[C@H]3C[C@@H](C/C=C(\C)C[C@@H](C)/C=C/C=C4\CO[C@H]1[C@@]42O)O[C@@]1(CC[C@H](C)[C@@H](C)O1)C3
active: all assays above

CC(C)=CC(=O)OCC1=C[C@H]2C(=O)O[C@H]3C[C@@H](C/C=C(\C)C[C@@H](C)/C=C/C=C4\CO[C@H]([C@@H]1O)[C@@]42O)O[C@@]1(CC[C@H](C)[C@@H](C)O1)C3
active: all assays above
